Measured values reported in patent US6465433B1, “Boronic ester and acid compounds, synthesis and uses” (Millennium Pharmaceuticals, Inc., priority 1994, dated 2002).

Columns and labels:
[1] = target: SDS-activated 20S proteasome from rabbit muscle (Oryctolagus cuniculus, UniProt G1SU71+G1T4Q9); assay: Kinetic assay: inhibition of the 20S proteasome; type: biochemical
Experimental: P, AA^1, AA^2, AA^3, and Z^1 and Z^2 represent the structures present on formula (1) or (2). The protocol for the kinetic assay described in Tables II-V is as described in Rock et al., Cell 78:761-771 (1994). In these tables, Ki values are reported, which are dissociation constants for the equilibrium that is established when enzyme and inhibitor interact to form the enzyme:inhibitor complex. The reactions were performed using SDS-activated 20S proteasome from rabbit muscle. The substrate used was Suc-LLVY-AMC.

C2C12 cells = assay: Inhibition of protein degradation in C2C12 cells; type: cell-based, mouse; conditions: 35S-methionine labelled cells, percent decrease in TCA soluble radioactivity, media with 50% serum
Experimental: One approach to testing drug candidates for their ability to inhibit the ATP-ubiquitin-dependent degradative process is to measure proteolysis in cultured cells (Rock, et al., Cell 78:761 (1994)). For example, the degradation of long-lived intracellular proteins can be measured in mouse C2C12 myoblast cells. Cells are incubated with ^35S-methionine for 48 hours to label long-lived proteins and then chased for 2 hours with medium containing unlabeled methionine. After the chase period, the cells are incubated for 4 hours in the presence or absence of the test compound. The amount of protein degradation in the cell can be measured by quantitating the trichloroacetic acid soluble radioactivity released from the pre-labeled proteins into the growth medium (an indicator of intracellular proteolysis).
C2C12 cells (a mouse myoblast line) were labelled for 48 hrs with ^35S-methionine. The cells were then washed and preincubated for 2 hrs in the same media supplemented with 2 mM unlabelled methionine. The media was removed and replaced with a fresh aliquot of the preincubation media containing 50% serum, and a concentration of the compound to be tested. The media was then removed and made up to 10% TCA and centrifuged. The TCA soluble radioactivity was counted. Inhibition of proteolysis was calculated as the percent decrease in TCA soluble radioactivity.

[2] = Table II, SDS-activated 20S proteasome from rabbit muscle, substrate Suc-LLVY-AMC

Ki [1, 2]	Compound	further results
–	CC(C)C[C@@H](C=O)NC(=O)[C@H](CC(C)C)NC(=O)OCc1ccccc1 [MG-105, reference compound]	Ki ([1]; Table III, dipeptide boronic acid vs dipeptide aldehyde): 15000 nM
0.032 nM	CC(C)CC(NC(=O)C(CC(C)C)NC(=O)C(CC(C)C)NC(=O)OCc1ccccc1)B1OC2CC3CC(C3(C)C)C2(C)O1 (centres unmarked) [MG-261]	–
119 nM	CC(C)CC(NC(=O)C(CC(C)C)NC(=O)OCc1ccccc1)B1OC2CC3CC(C3(C)C)C2(C)O1 (centres unmarked) [MG-264]	–
0.083 nM	CC(C)C[C@H](NC(=O)[C@H](Cc1cccc2ccccc12)NC(=O)OCc1ccccc1)B(O)O [MG-270]	IC50 (C2C12 cells): 730 nM
34 nM	CC(C)CC(NC(=O)C(Cc1ccc2ccccc2c1)NC(=O)OCc1ccccc1)B(O)O (centres unmarked) [MG-272]	IC50 (C2C12 cells): 6000 nM
0.14 nM	CC(C)C[C@H](NC(=O)[C@H](CC(C)C)NC(=O)[C@H](CC(C)C)NC(=O)N1CCOCC1)B(O)O [MG-278]	IC50 (C2C12 cells; Mus musculus, C2C12): 7500 nM
25 nM	CC(C)C[C@H](NC(=O)[C@H](Cc1c[nH]cn1)NC(=O)OCc1ccccc1)B(O)O [MG-282]	IC50 (C2C12 cells): 64000 nM
0.46 nM	CC(=O)N[C@@H](CC(C)C)C(=O)N[C@@H](CC(C)C)C(=O)N[C@@H](CC(C)C)B(O)O [MG-283]	IC50 (C2C12 cells; Mus musculus, C2C12): 3000 nM
1200 nM	CO[C@](C(=O)N[C@@H](CC(C)C)B(O)O)(c1ccccc1)C(F)(F)F [MG-284]	–
3 nM	CC(C)C[C@H](NC(=O)[C@H](Cc1c[nH]c2ccccc12)NC(=O)N1CCOCC1)B(O)O [MG-285]	IC50 (C2C12 cells): 2400 nM
0.15 nM	CC(C)C[C@H](NC(=O)[C@H](Cc1cccc2ccccc12)NC(=O)N1CCOCC1)B1OCCNCCO1 [MG-286, Diethanolamine N-(4-Morpholine)carbonyl-β-(1-naphthyl)-L-alanine-L-leucine Boronate]	IC50 (C2C12 cells; Mus musculus, C2C12): 95 nM
6.3 nM	CC(C)C[C@H](NC(=O)[C@H](Cc1cccnc1)NS(C)(=O)=O)B(O)O [MG-289]	IC50 (C2C12 cells): 10800 nM
5.4 nM	CC(=O)N[C@@H](Cc1cccnc1)C(=O)N[C@@H](CC(C)C)B(O)O [MG-290]	IC50 (C2C12 cells): 10200 nM
0.28 nM	CC(C)C[C@H](NC(=O)[C@H](Cc1cccc2ccccc12)NS(C)(=O)=O)B1OCCNCCO1 [MG-291]	–
6 nM	CC(C)CC(NC(=O)C(Cc1ccc2ncccc2c1)NC(=O)N1CCOCC1)B(O)O [MG-292, N-(4-Morpholine)carbonyl-β-(6-quinolinyl)-D, L-alanine-L-leucine Boronic Acid]	IC50 (C2C12 cells; Mus musculus, C2C12): 11300 nM
2300 nM	CC(C)CC(NC(=O)C(Cc1cccc2ccccc12)NC(=O)N1CCOCC1)B(O)O (centres unmarked) [MG-293]	–
152 nM	CC(C)C[C@H](NC(=O)[C@@H](N)Cc1cccnc1)B(O)O [MG-294]	–
5.8 nM	CC(C)C[C@H](NC(=O)[C@H](Cc1c[nH]c2ccccc12)NS(C)(=O)=O)B(O)O [MG-295]	–
0.075 nM	CC(C)C[C@H](NC(=O)[C@H](Cc1cccc2ccccc12)NC(=O)c1ccc2ccccc2n1)B(O)O [MG-298]	IC50 (C2C12 cells): 230 nM
0.14 nM	CC(C)C[C@H](NC(=O)[C@H](Cc1cccc2ccccc12)NC(=O)c1cnc2ccccc2n1)B(O)O [MG-299]	IC50 (C2C12 cells): 280 nM
1.3 nM	CC(C)C[C@H](NC(=O)[C@H](Cc1cccnc1)NC(=O)N1CCOCC1)B(O)O [MG-300]	–
–	CC(C)C[C@H](NC(=O)CCc1ccccc1)B(O)O [MG-313]	IC50 (C2C12 cells; Mus musculus, C2C12): 3500 nM
99 nM	CB(O)[C@H](CC(C)C)NC(=O)[C@H](Cc1cccc2ccccc12)NC(=O)N1CCOCC1 [MG-317, N-(4-Morplioline)carbonyl-β-(1-naphtlyl)-L-alanine-L-leucine Methylboronic Acid]	–
640 nM	CB(C)[C@H](CC(C)C)NC(=O)[C@H](Cc1cccc2ccccc12)NC(=O)N1CCOCC1 [MG-318, N-(4-Morpholine)carbonyl-β-(1-naphthyl)-L-alanine-L-leucine Dimethylborane]	–

Ki [1, 2]	Compound	further results
850 nM	CC(=O)N[C@@H](CC(C)C)B(O)O [MG-323]	–
2 nM	CC(C)C[C@H](NC(=O)[C@@H](CC(=O)N1CCOCC1)Cc1cccc2ccccc12)B(O)O [MG-324, N-[3-(4-Morpholine)carbonyl-2(R)-(1-naphthyl)methyl]propionyl-L-leucine Boronic Acid]	–
230 nM	CC(C)CC(NC(=O)C1NCCc2ccccc21)B(O)O (centres unmarked) [MG-337]	–
1.4 nM	CC(C)C[C@H](NC(=O)[C@H](Cc1ccccn1)NC(=O)c1ccc2ccccc2n1)B(O)O [MG-338]	–
1600 nM	CC(C)CC(NC(=O)C1CCCNC1)B(O)O (centres unmarked) [MG-339]	–
9700 nM	CC(C)C[C@H](CC(=O)NCc1ccccc1)B(O)O [MG-342, N-Benzyl-(3R)-3-dioxyboryl-5-methylhexanamide]	–
51 nM	CC(=O)N1Cc2[nH]c3ccccc3c2C[C@H]1C(=O)N[C@@H](CC(C)C)B(O)O [MG-344]	–
21 nM	CC(C)C[C@H](NC(=O)[C@@H]1C[C@@H](O)CN1)B(O)O [MG-348]	–
0.15 nM	CC(C)C[C@H](NC(=O)[C@H](Cc1ccccc1)NC(=O)c1ccccc1)B(O)O [MG-353]	–
28 nM	CC(C)C[C@H](NC(=O)C[C@H](O)[C@H](Cc1cccc2ccccc12)NS(=O)(=O)c1cccc2cccnc12)B(O)O [MG-354]	–
0.13 nM	CC(C)C[C@H](NC(=O)[C@H](Cc1ccccc1)NC(=O)OCc1ccccc1)B(O)O [MG-356]	–
23 nM	CC(C)CC(NC(=O)C1CCCCN1)B(O)O (centres unmarked) [MG-357]	–
0.17 nM	CC(C)C[C@H](NC(=O)[C@H](Cc1ccccc1)NC(=O)c1ccoc1)B(O)O [MG-358]	–
0.14 nM	CC(C)C[C@H](NC(=O)[C@H](Cc1ccccc1)NC(=O)c1cc[nH]c1)B(O)O [MG-361]	–
6400 nM	CC(C)C[C@H](NC(=O)NCc1ccccc1)B(O)O [MG-362]	–
45.2 nM	CC(C)C[C@H](NC(=O)[C@@H]1CCCCN1)B(O)O [MG-366]	–
5.6 nM	CC(C)C[C@H](NC(=O)[C@H](Cc1ccccn1)NC(=O)c1cnccn1)B(O)O [MG-368]	–
24.2 nM	CC(C)C[C@H](NC(=O)[C@@H]1CCN1)B(O)O [MG-369]	–
4.4 nM	CC(C)C[C@H](NC(=O)[C@H](Cc1ccccc1)NS(=O)(=O)c1cccc2cccnc12)B(O)O [MG-380]	–
0.95 nM	CC(C)C[C@H](NC(=O)[C@H](Cc1ccc(F)cc1)NC(=O)c1cnccn1)B(O)O [MG-382]	–
0.84 nM	CC(C)C[C@@H](NC(=O)[C@H](Cc1ccc(F)cc1)NC(=O)c1ccccn1)B(O)O [MG-383]	–
23 nM	CC(C)C[C@H](NC(=O)[C@@H]1C[C@@H](OCc2ccc3ccccc3n2)CN1)B(O)O [MG-385]	–
92 nM	CC(C)CC(NC(=O)C1CC2CCCCC2N1)B(O)O (centres unmarked) [MG-386]	–

Compound	Ki [1, 2]	further results
CC(=O)N1Cc2ccccc2CC1C(=O)N[C@@H](CC(C)C)B(O)O (stereo partly drawn) [MG-310, N-Acetyl-1,2,3,4-tetrahydro-3-isoquinolinecarbonyl-L-leucine Boronic Acid]	90 nM	–
N-(3-phenylpropionyl)-L-phenylalanine-L-leucine boronic acid [MG-352]	0.15 nM	–
N-Methyl-N-Cbz-L-leucine-L-leucine Boronic Acid [MG-268]	998 nM	–
cis-3-Phenyl-D,L-proline-L-leucine Boronic Acid Hydrochloride Salt [MG-359]	5.5 nM	–
trans-3-Phenyl-D,L-proline-L-leucine Boronic Acid Hydrochloride Salt [MG-363]	3.45 nM	–
trans-4-Phenoxy-L-proline-L-leucine Boronic Acid [MG-349]	18 nM	–
